Test results published in patent US5300491A, “Treatment of protozoal infection” (priority 1992, dated 1994).
Like-named read-outs stand apart in the source and are kept apart here. Bridge positions count the residues as written; N and C are the ends. Square brackets hold non-standard residues; d marks the D form. Peptide text beside a SMILES is read from it. * marks the point of attachment. Ileψ(thiazoline)Cys = CC[C@H](C)[C@H](N)C1=N[C@H](C(=O)*)CS1; dOrn = NCCC[C@@H](N)C(=O)O

System: Entamoeba histolytica
Assay type: cell-based
Text: E. histolytica isolates representing three distinct zymodemes (I, II or XIV) were derived from a range of geographical locations. The patients from whom the isolates were obtained were either pathogenic (i.e. presented dysentery), or non-pathogenic (i.e., presented a non-dysenteric stage of infection characterized by passing of cysts or trophozoites). The following table identifies the E. histolytica isolates in accordance with the above criteria:
Each isolate was a xenic culture, i.e., it contained, in addition to the E. histolytica amoeba, the normally occurring patient faecal microflora. The cultures were maintained according to the method of Robinson, Trans. Roy. Soc. Trop. Med. Hyg. 62, 285-94, (1968). Bacitracin (70 I.U./mg) and its zinc salt (65 I.U./mg) were obtained from Apothekernes Laboratorium A.S (Oslo, Norway). Following microtitre-assay standardization and pilot testing of the drugs (results not presented), the following assay procedure was established. Bacitracin was screened over the range of 20.0-0.625 mg/ml by doubling dilution. 30 mg/ml bacitracin was also examined. […] The remaining wells were run as controls. An initial stock solution of 75 mg/ml bacitracin was prepared in starch-free Robinson medium (SFRM) . Subsequent to loading the first set of wells, the stock was diluted with SFRM to 50 mg/ml, which was used to prepare the remaining concentrations. […] 100 μl volumes of both drugs were then double-diluted in SFRM to provide 2.5X concentrates of the required final concentrations in the microtitre plates. 50 μl of a 25 mg% starch (BDH) solution (in SFRM) was then added to each well. 16-18 hours before the end of the required 48-hour culture period, the amoeba isolates were passaged to fresh tubes containing starch-free Robinson medium. At the end of the culture period, the amoebae were harvested in a small volume of medium and resuspended in at least 20 volumes SFRM. The suspensions were centrifuged at 1000 rpm for 5 minutes prior to re-suspension in fresh medium and counted in a modified Neubauer chamber. Amoebae were centrifuged as before and the pellet resuspended to a concentration of 2.5×10^4 /ml SFRM. 100 μl aliquots were then pipetted into respective wells to provide duplicate cultures of each isolate for each concentration assayed. The plates were then placed in an anaerobic chamber (HP11, Oxoid) at 37° C. for 24 hours. While this procedure provided sufficient starch for the amoebae, the concentration was such that at 24 hours the plates were easily read and quantitified by direct observation using an inverted microscope. Viability was assessed by the addition of Trypan blue to a final concentration of 0.1%.
Readings from each of the studies were collected and stored until all three experiments were completed in order to reduce any bias in subsequent readings. Minimun inhibitory and minimum lethal concentrations were given in mg/ml. […]

[1] = xenic isolate 70k, Experiment 1
[2] = xenic isolate 70k, Experiment 2
[3] = xenic isolate 70k, Experiment 3
[4] = xenic isolate 116k, Experiment 1
[5] = xenic isolate 116k, Experiment 2
[6] = xenic isolate 116k, Experiment 3
[7] = xenic isolate 418, Experiment 1
[8] = xenic isolate 418, Experiment 2
[9] = xenic isolate 418, Experiment 3
[10] = xenic isolate 1246, Experiment 1
[11] = xenic isolate 1246, Experiment 2
[12] = xenic isolate 1246, Experiment 3
[13] = xenic isolate AiDO, Experiment 1
[14] = xenic isolate AiDO, Experiment 2
[15] = xenic isolate AiDO, Experiment 3
[16] = xenic isolate BiLO, Experiment 1
[17] = xenic isolate BiLO, Experiment 3
[18] = xenic isolate DOGO, Experiment 1
[19] = xenic isolate DOGO, Experiment 2
[20] = xenic isolate DOGO, Experiment 3
[21] = xenic isolate OMAk, Experiment 1
[22] = xenic isolate OMAk, Experiment 3
[23] = xenic isolate Sh2, Experiment 2
[24] = xenic isolate Sh2, Experiment 3
[25] = xenic isolate T2k, Experiment 1
[26] = xenic isolate T2k, Experiment 2
[27] = xenic isolate T2k, Experiment 3
[28] = xenic isolate URU1, Experiment 1
[29] = xenic isolate URU1, Experiment 2
[30] = xenic isolate URU1, Experiment 3
[31] = xenic isolate URU19, Experiment 1

SMILES: CC[C@H](C)[C@H](N)C1=N[C@H](C(=O)N[C@@H](CC(C)C)C(=O)N[C@H](CCC(=O)O)C(=O)N[C@H](C(=O)N[C@H]2CCCCNC(=O)[C@H](CC(N)=O)NC(=O)[C@@H](CC(=O)O)NC(=O)[C@H](Cc3cnc[nH]3)NC(=O)[C@@H](Cc3ccccc3)NC(=O)[C@H]([C@@H](C)CC)NC(=O)[C@@H](CCCN)NC2=O)[C@@H](C)CC)CS1 [Bacitracin, reference compound] ({Ileψ(thiazoline)Cys}-L[dE]IK[dOrn]I[dF]H[dD]N; lactam 4-C)
- MICs (span over all xenic isolates and studies): 0.63 to 10.0 mg/mL
- Minimum Lethal Concentration (MLC) (xenic Isolate 1, single study over a narrower range of drug concentration (Table 4)): 21 mg/mL
- Minimum Lethal Concentration (MLC) (xenic Isolate C1, single study over a narrower range of drug concentration (Table 4)): 24 mg/mL
- Minimum Inhibitory Concentration (MIC) (xenic isolate 1, Experiment 1): 5.0 mg/mL
- Minimum Lethal Concentration (MLC) (xenic isolate 1, Experiment 1): 30.0 mg/mL
- Minimum Inhibitory Concentration (MIC) (xenic isolate 1, Experiment 2): 10.0 mg/mL
- Minimum Lethal Concentration (MLC) (xenic isolate 1, Experiment 2): 30.0 mg/mL
- Minimum Inhibitory Concentration (MIC) (xenic isolate 1, Experiment 3): 5.0 mg/mL
- Minimum Lethal Concentration (MLC) (xenic isolate 1, Experiment 3): 30.0 mg/mL
- Minimum Inhibitory Concentration (MIC) [1]: 5.0 mg/mL
- Minimum Lethal Concentration (MLC) [1]: 30.0 mg/mL
- Minimum Inhibitory Concentration (MIC) [2]: 5.0 mg/mL
- Minimum Lethal Concentration (MLC) [2]: 20.0 mg/mL
- Minimum Inhibitory Concentration (MIC) [3]: 10.0 mg/mL
- Minimum Lethal Concentration (MLC) [3]: 30.0 mg/mL
- Minimum Inhibitory Concentration (MIC) [4]: 10.0 mg/mL
- Minimum Lethal Concentration (MLC) [4]: 30.0 mg/mL
- Minimum Inhibitory Concentration (MIC) [5]: 1.25 mg/mL
- Minimum Lethal Concentration (MLC) [5]: 30.0 mg/mL
- Minimum Inhibitory Concentration (MIC) [6]: 1.25 mg/mL
- Minimum Lethal Concentration (MLC) [6]: 30.0 mg/mL
- Minimum Inhibitory Concentration (MIC) [7]: 5.0 mg/mL
- Minimum Lethal Concentration (MLC) [7]: 30.0 mg/mL
- Minimum Inhibitory Concentration (MIC) [8]: 0.63 mg/mL
- Minimum Lethal Concentration (MLC) [8]: 20.0 mg/mL
- Minimum Inhibitory Concentration (MIC) [9]: 0.63 mg/mL
- Minimum Lethal Concentration (MLC) [9]: 20.0 mg/mL
- Minimum Inhibitory Concentration (MIC) [10]: 2.5 mg/mL
- Minimum Lethal Concentration (MLC) [10]: 30.0 mg/mL
- Minimum Inhibitory Concentration (MIC) [11]: 10.0 mg/mL
- Minimum Lethal Concentration (MLC) [11]: 20.0 mg/mL
- Minimum Inhibitory Concentration (MIC) [12]: 0.63 mg/mL
- Minimum Lethal Concentration (MLC) [12]: 20.0 mg/mL
- Minimum Inhibitory Concentration (MIC) [13]: 10.0 mg/mL
- Minimum Lethal Concentration (MLC) [13]: 30.0 mg/mL
- Minimum Inhibitory Concentration (MIC) [14]: 2.5 mg/mL
- Minimum Lethal Concentration (MLC) [14]: 30.0 mg/mL
- Minimum Inhibitory Concentration (MIC) [15]: 2.5 mg/mL
- Minimum Lethal Concentration (MLC) [15]: 30.0 mg/mL
- Minimum Inhibitory Concentration (MIC) [16]: 5.0 mg/mL
- Minimum Lethal Concentration (MLC) [16]: 30.0 mg/mL
- Minimum Inhibitory Concentration (MIC) [17]: 1.25 mg/mL
- Minimum Lethal Concentration (MLC) [17]: 20.0 mg/mL
- Minimum Inhibitory Concentration (MIC) (xenic isolate C1, Experiment 1): 10.0 mg/mL
- Minimum Lethal Concentration (MLC) (xenic isolate C1, Experiment 1): 30.0 mg/mL
- Minimum Inhibitory Concentration (MIC) (xenic isolate C1, Experiment 2): 5.0 mg/mL
- Minimum Lethal Concentration (MLC) (xenic isolate C1, Experiment 2): 20.0 mg/mL
- Minimum Inhibitory Concentration (MIC) (xenic isolate C1, Experiment 3): 1.25 mg/mL
- Minimum Lethal Concentration (MLC) (xenic isolate C1, Experiment 3): 20.0 mg/mL
- Minimum Inhibitory Concentration (MIC) (xenic isolate C2, Experiment 1): 2.5 mg/mL
- Minimum Lethal Concentration (MLC) (xenic isolate C2, Experiment 1): 30.0 mg/mL
- Minimum Inhibitory Concentration (MIC) (xenic isolate C2, Experiment 2): 5.0 mg/mL
- Minimum Lethal Concentration (MLC) (xenic isolate C2, Experiment 2): 20.0 mg/mL
- Minimum Inhibitory Concentration (MIC) (xenic isolate C2, Experiment 3): 2.5 mg/mL
- Minimum Lethal Concentration (MLC) (xenic isolate C2, Experiment 3): 30.0 mg/mL
- Minimum Inhibitory Concentration (MIC) (xenic isolate DA, Experiment 1): 2.5 mg/mL
- Minimum Lethal Concentration (MLC) (xenic isolate DA, Experiment 1): 30.0 mg/mL
- Minimum Inhibitory Concentration (MIC) (xenic isolate DA, Experiment 2): 5.0 mg/mL
- Minimum Lethal Concentration (MLC) (xenic isolate DA, Experiment 2): 30.0 mg/mL
- Minimum Inhibitory Concentration (MIC) (xenic isolate DA, Experiment 3): 0.63 mg/mL
- Minimum Lethal Concentration (MLC) (xenic isolate DA, Experiment 3): 20.0 mg/mL
- Minimum Inhibitory Concentration (MIC) [18]: 2.5 mg/mL
- Minimum Lethal Concentration (MLC) [18]: 30.0 mg/mL
- Minimum Inhibitory Concentration (MIC) [19]: 2.5 mg/mL
- Minimum Lethal Concentration (MLC) [19]: 20.0 mg/mL
- Minimum Inhibitory Concentration (MIC) [20]: 0.63 mg/mL
- Minimum Lethal Concentration (MLC) [20]: 10.0 mg/mL
- Minimum Inhibitory Concentration (MIC) (xenic isolate GS, Experiment 1): 2.5 mg/mL
- Minimum Lethal Concentration (MLC) (xenic isolate GS, Experiment 1): 30.0 mg/mL
- Minimum Inhibitory Concentration (MIC) (xenic isolate GS, Experiment 2): 1.25 mg/mL
- Minimum Lethal Concentration (MLC) (xenic isolate GS, Experiment 2): 20.0 mg/mL
- Minimum Inhibitory Concentration (MIC) (xenic isolate GS, Experiment 3): 0.63 mg/mL
- Minimum Lethal Concentration (MLC) (xenic isolate GS, Experiment 3): 30.0 mg/mL
- Minimum Inhibitory Concentration (MIC) (xenic isolate MS, Experiment 1): 5.0 mg/mL
- Minimum Lethal Concentration (MLC) (xenic isolate MS, Experiment 1): 30.0 mg/mL
- Minimum Inhibitory Concentration (MIC) (xenic isolate MS, Experiment 2): 2.5 mg/mL
- Minimum Lethal Concentration (MLC) (xenic isolate MS, Experiment 2): 20.0 mg/mL
- Minimum Inhibitory Concentration (MIC) (xenic isolate MS, Experiment 3): 1.25 mg/mL
- Minimum Lethal Concentration (MLC) (xenic isolate MS, Experiment 3): 20.0 mg/mL
- Minimum Inhibitory Concentration (MIC) [21]: 2.5 mg/mL
- Minimum Lethal Concentration (MLC) [21]: 30.0 mg/mL
- Minimum Inhibitory Concentration (MIC) [22]: 1.25 mg/mL
- Minimum Lethal Concentration (MLC) [22]: 30.0 mg/mL
- Minimum Inhibitory Concentration (MIC) (xenic isolate SI, Experiment 1): 2.5 mg/mL
- Minimum Lethal Concentration (MLC) (xenic isolate SI, Experiment 1): 30.0 mg/mL
- Minimum Inhibitory Concentration (MIC) (xenic isolate SI, Experiment 3): 2.5 mg/mL
- Minimum Lethal Concentration (MLC) (xenic isolate SI, Experiment 3): 20.0 mg/mL
- Minimum Inhibitory Concentration (MIC) [23]: 5.0 mg/mL
- Minimum Lethal Concentration (MLC) [23]: 20.0 mg/mL
- Minimum Inhibitory Concentration (MIC) [24]: 2.5 mg/mL
- Minimum Lethal Concentration (MLC) [24]: 30.0 mg/mL
- Minimum Inhibitory Concentration (MIC) [25]: 2.5 mg/mL
- Minimum Lethal Concentration (MLC) [25]: 30.0 mg/mL
- Minimum Inhibitory Concentration (MIC) [26]: 2.5 mg/mL
- Minimum Lethal Concentration (MLC) [26]: 30.0 mg/mL
- Minimum Inhibitory Concentration (MIC) [27]: 0.63 mg/mL
- Minimum Lethal Concentration (MLC) [27]: 30.0 mg/mL
- Minimum Inhibitory Concentration (MIC) (xenic isolate T4, Experiment 1): 5.0 mg/mL
- Minimum Lethal Concentration (MLC) (xenic isolate T4, Experiment 1): 30.0 mg/mL
- Minimum Inhibitory Concentration (MIC) (xenic isolate T4, Experiment 2): 2.5 mg/mL
- Minimum Lethal Concentration (MLC) (xenic isolate T4, Experiment 2): 30.0 mg/mL
- Minimum Inhibitory Concentration (MIC) (xenic isolate T4, Experiment 3): 0.63 mg/mL
- Minimum Lethal Concentration (MLC) (xenic isolate T4, Experiment 3): 30.0 mg/mL
- Minimum Inhibitory Concentration (MIC) (xenic isolate T6, Experiment 1): 2.5 mg/mL
- Minimum Lethal Concentration (MLC) (xenic isolate T6, Experiment 1): 30.0 mg/mL
- Minimum Inhibitory Concentration (MIC) (xenic isolate T6, Experiment 2): 2.5 mg/mL
- Minimum Lethal Concentration (MLC) (xenic isolate T6, Experiment 2): 20.0 mg/mL
- Minimum Inhibitory Concentration (MIC) (xenic isolate T6, Experiment 3): 2.5 mg/mL
- Minimum Lethal Concentration (MLC) (xenic isolate T6, Experiment 3): 20.0 mg/mL
- Minimum Inhibitory Concentration (MIC) [28]: 2.5 mg/mL
- Minimum Lethal Concentration (MLC) [28]: 30.0 mg/mL
- Minimum Inhibitory Concentration (MIC) [29]: 2.5 mg/mL
- Minimum Lethal Concentration (MLC) [29]: 20.0 mg/mL
- Minimum Inhibitory Concentration (MIC) [30]: 1.25 mg/mL
- Minimum Lethal Concentration (MLC) [30]: 30.0 mg/mL
- Minimum Inhibitory Concentration (MIC) [31]: 2.5 mg/mL
- Minimum Lethal Concentration (MLC) [31]: 30.0 mg/mL
